Read-outs that look alike come from different tables or passages of the source.
How the values were obtained:
Solubility = type: physicochemical; conditions: common organic solvents
gastric mucosa = assay: Gastric tolerance (ulcerogenic activity); type: in vivo, male Wistar rats; conditions: 4 days; for Mean Severity: scale 0-5; for Gastric Damage index: vehicle 8
Protocol: This was studied by conducting tests of ulcerogenic activity in male Wistar rats, weighing 180 g on the average, in groups of 10 animals each. Three doses of each substance were given, and one group of animals was treated with vehicle only in a volume of 10 ml/kg bodyweight. Each dose was given orally for four consecutive days; on the fifth day, the rats were killed and autopsied. The ulcerogenic effect was assessed according to the following scale:
(1) each hemorrhage point ≥1 mm was evaluated as 1 lesion
(2) hemorrhage points smaller than 1 mm were counted as follows:
(b) from 1 to 19:2 lesions
(c) from 1 to 29:3 lesions
(2) gastric mucosa irritation: 1
(3) hemorrahge points <1 mm: 2
(4) hemorrhage points between 1 and 3 mm: 3
(5) hemorrhage points >3 mm: 4
This scale was used to calculate the following gastric damage index: [formula]

[1] = test system: rat platelet-rich plasma (ADP-induced platelet aggregation); assay: Anti-platelet aggregation activity in vitro (Born's method), rat platelet-rich plasma, ADP-induced; type: cell-based
Protocol: Preparations (A), (B), (C), (D), (E) and (F) were administered "in vivo" orally and/or parenterally in 0.5% carboxymethylcellulose suspensions in physiological saline at neutral pH. When tested "in vitro", they were finely dispersed in neutral pH physiological saline.
This was studied "in vitro" following Born's method (Born G. W. R., Nature, 194, 937 (1962)) and inducing platelet aggregation with ADP.
Platelet-rich plasma was obtained by centrifugation for 10 minutes at 2,000 rpm of 9 parts rat blood to 1 part 3.13% sodium citrate solution. In performing the aggregation test, 0.2 ml of platelet rich plasm was mixed with a 0.9% NaCl solution to which the test substance was added to a final volume of 0.6 ml; the resulting mixture was incubated at 27° C. for 3 minutes. After inducement with ADP, aggregation was measured continuously with an Elvi 840 Aggregometer (Elvi Logos-Milan) to follow its course. The anti-aggregant effects were determined from the difference in the light transmission of the sample with respect to an ADP control.
Table I reports the platelet aggregation inhibition using different doses of the test compounds at a constant ADP concentration.

[2] = test system: human platelet aggregation (PRP); assay: Human platelet aggregation in vitro induced by ADP, adrenalin, collagen or arachidonate; type: cell-based; conditions: Homo sapiens
Protocol: Blood samples (20 ml) were obtained by venal puncture of the antecubital fossa using plastic syringes containing trisodium citrate as anticoagulant (final concentration 0.19% w/v). Platelet rich plasma (PRP) was harvested after slow centrifugation at 170 g for 12 min. and 0.2 ml aliquots were dispensed into plastic cuvettes and stored at room temperature throughout the experiment.
Aliquots of 0.2 ml PRP from each sample were treated with ADP, adrenalin, collagen or arachidonate, until the threshold concentrations of these aggregating agents had been reached. The threshold concentration is defined as the minimum whcih will produce irreversible aggregation. Once established, the threshold concentration was used to challenge test samples of each of the 2 test compounds or vehicle (DMSO) which had been incubated for 1 min. at 37 C. in the holding cell of the agregometer, prior to addition of the aggregating agent.
This was reported as the final concentration in the PRP after addition of 2.5-10 ul of test substance.

in vivo [3] = conditions: mouse, mice
carragenin-induced edema = assay: Carragenin-induced edema test (Winter); type: in vivo, rat
Protocol: This effect was measured with an experimental model reproducing acute inflammation in rats: the carragenin-induced edema test according to C.

in vivo [4] = conditions: rat, rats
[5] = ADP 2 μmol/l, dose 1 V/ml (Table II)
[6] = ADP 5 μmol/l, dose 1 V/ml (Table II)
[7] = ADP 7.08 μmol/l, dose 1 /ml (Table I)
[8] = ADP 7.08 μmol/l, dose 2,5 /ml (Table I)
[9] = ADP 7.08 μmol/l, dose 5 /ml (Table I)

Structure (SMILES): Cc1ccc(C(=O)c2ccc(CC(=O)OCCn3cnc4c3c(=O)n(C)c(=O)n4C)n2C)cc1 [(A), 1-Methyl-5-p-methylbenzoylpyrrol-2-acetate of 7-(2-oxyethyl)theophylline]
- Solubility (Solubility): Soluble in common organic solvents
- % incidence 10 (gastric mucosa; 50 mg/kg oral): 6 %/10
- Gastric Damage index, second figure (after +; difference from vehicle) (gastric mucosa; 50 mg/kg oral): 1
- Mean No. lesions (gastric mucosa; 50 mg/kg oral): 1
- Mean Severity (gastric mucosa; 50 mg/kg oral): 2
- Gastric Damage index (gastric mucosa; 50 mg/kg oral): 9
- % incidence 10 (gastric mucosa; 100 mg/kg oral): 8 %/10
- Gastric Damage index, second figure (after +; difference from vehicle) (gastric mucosa; 100 mg/kg oral): 4
- Mean No. lesions (gastric mucosa; 100 mg/kg oral): 2
- Mean Severity (gastric mucosa; 100 mg/kg oral): 2
- Gastric Damage index (gastric mucosa; 100 mg/kg oral): 12
- % incidence 10 (gastric mucosa; 200 mg/kg oral): 8 %/10
- Gastric Damage index, second figure (after +; difference from vehicle) (gastric mucosa; 200 mg/kg oral): 6
- Mean No. lesions (gastric mucosa; 200 mg/kg oral): 3
- Mean Severity (gastric mucosa; 200 mg/kg oral): 3
- Gastric Damage index (gastric mucosa; 200 mg/kg oral): 14
- % Inhibition [1, 5]: 42%
- % Inhibition [1, 6]: 30%
- % Inhibition [1, 7]: 25%
- % Inhibition [1, 8]: 100%
- % Inhibition [1, 9]: 100%
- minimal effective concentration ([2]; ATH-8, 1 min, ADP, volunteer 3, read-out: Minimum Effective Concentration (Final in PRP)): 100 µM
- minimal effective concentration ([2]; ATH-8, 1 min, Adrenalin, volunteer 3, read-out: Minimum Effective Concentration (Final in PRP)): 10 µM
- minimal effective concentration ([2]; ATH-8, 1 min, Arachidonate, volunteer 3, read-out: Minimum Effective Concentration (Final in PRP)): 250 µM
- minimal effective concentration ([2]; ATH-8, 1 min, Collagen, volunteer 3, read-out: Minimum Effective Concentration (Final in PRP)): 700 µM
- minimal effective concentration ([2]; Platelet, 1 min, ADP, volunteer 1, read-out: Minimum Effective Concentration (Final in PRP)): 10 µM
- minimal effective concentration ([2]; Platelet, 1 min, ADP, volunteer 2 (donor gamma), read-out: Minimum Effective Concentration (Final in PRP)): 10 µM
- minimal effective concentration ([2]; Platelet, 1 min, Adrenalin, range over 3 volunteers, read-out: Minimum Effective Concentration Range): 10 µM
- minimal effective concentration ([2]; Platelet, 1 min, Adrenalin, volunteer 1, read-out: Minimum Effective Concentration (Final in PRP)): 10 µM
- minimal effective concentration ([2]; Platelet, 1 min, Adrenalin, volunteer 2 (donor gamma), read-out: Minimum Effective Concentration (Final in PRP)): 10 µM
- minimal effective concentration ([2]; Platelet, 1 min, Arachidonate, volunteer 1, read-out: Minimum Effective Concentration (Final in PRP)): 100 µM
- minimal effective concentration ([2]; Platelet, 1 min, Arachidonate, volunteer 2 (donor gamma), read-out: Minimum Effective Concentration (Final in PRP)): 10 µM
- minimal effective concentration ([2]; Platelet, 1 min, Collagen, volunteer 1, read-out: Minimum Effective Concentration (Final in PRP)): 100 µM
- minimal effective concentration ([2]; Platelet, 1 min, Collagen, volunteer 2 (donor gamma), read-out: Minimum Effective Concentration (Final in PRP)): 550 µM
- LD50 (in vivo [3]; ip, I.P.): 950 mg/kg
- LD50 (in vivo [3]; po, OS): 1270 mg/kg
- % Edema Inhibition (carragenin-induced edema; I.P., 10 mg/kg, 3 h): 35,0%
- % Edema Inhibition (carragenin-induced edema; I.P., 10 mg/kg, 6 h): 26,0%
- % Edema Inhibition (carragenin-induced edema; I.P., 10 mg/kg, 24 h): 0,0%
- % Edema Inhibition (carragenin-induced edema; I.P., 50 mg/kg, 3 h): 54,0%
- % Edema Inhibition (carragenin-induced edema; I.P., 50 mg/kg, 6 h): 40,0%
- % Edema Inhibition (carragenin-induced edema; I.P., 50 mg/kg, 24 h): 0,0%
- % Edema Inhibition (carragenin-induced edema; I.P., 100 mg/kg, 3 h): 65,0%
- % Edema Inhibition (carragenin-induced edema; I.P., 100 mg/kg, 6 h): 56,1%
- % Edema Inhibition (carragenin-induced edema; I.P., 100 mg/kg, 24 h): 0,0%
- % Edema Inhibition (carragenin-induced edema; OS, 10 mg/kg, 3 h): 34,6%
- % Edema Inhibition (carragenin-induced edema; OS, 10 mg/kg, 6 h): 22,2%
- % Edema Inhibition (carragenin-induced edema; OS, 10 mg/kg, 24 h): 0,0%
- % Edema Inhibition (carragenin-induced edema; OS, 50 mg/kg, 3 h): 52,0%
- % Edema Inhibition (carragenin-induced edema; OS, 50 mg/kg, 6 h): 41,1%
- % Edema Inhibition (carragenin-induced edema; OS, 50 mg/kg, 24 h): 0,0%
- % Edema Inhibition (carragenin-induced edema; OS, 100 mg/kg, 3 h): 62,0%
- % Edema Inhibition (carragenin-induced edema; OS, 100 mg/kg, 6 h): 57,3%
- % Edema Inhibition (carragenin-induced edema; OS, 100 mg/kg, 24 h): 10,0%
- LD50 (in vivo [4]; ip, I.P.): 800 mg/kg
- LD50 (in vivo [4]; po, OS): 1150 mg/kg

Structure (SMILES): Cc1cc(CC(=O)OCCn2cnc3c2c(=O)n(C)c(=O)n3C)n(C)c1C(=O)c1ccc(Cl)cc1 [(B), 1,4-Dimethyl-5-p-chlorobenzoylpyrrol-2-acetate of 7-(2-oxyethyl)theophylline]
- Solubility (Solubility): Soluble in common organic solvents
- % incidence 10 (gastric mucosa; 5 mg/kg oral): 8 %/10
- Gastric Damage index, second figure (after +; difference from vehicle) (gastric mucosa; 5 mg/kg oral): 5
- Mean No. lesions (gastric mucosa; 5 mg/kg oral): 2,5
- Mean Severity (gastric mucosa; 5 mg/kg oral): 2,5
- Gastric Damage index (gastric mucosa; 5 mg/kg oral): 13
- % incidence 10 (gastric mucosa; 10 mg/kg oral): 9 %/10
- Gastric Damage index, second figure (after +; difference from vehicle) (gastric mucosa; 10 mg/kg oral): 8
- Mean No. lesions (gastric mucosa; 10 mg/kg oral): 3
- Mean Severity (gastric mucosa; 10 mg/kg oral): 4
- Gastric Damage index (gastric mucosa; 10 mg/kg oral): 16
- % incidence 10 (gastric mucosa; 2,5 mg/kg oral): 7 %/10
- Gastric Damage index, second figure (after +; difference from vehicle) (gastric mucosa; 2,5 mg/kg oral): 2
- Mean No. lesions (gastric mucosa; 2,5 mg/kg oral): 1
- Mean Severity (gastric mucosa; 2,5 mg/kg oral): 2
- Gastric Damage index (gastric mucosa; 2,5 mg/kg oral): 10
- % Inhibition [1, 5]: 31%
- % Inhibition [1, 6]: 25%
- % Inhibition [1, 7]: 20%
- % Inhibition [1, 8]: 70%
- % Inhibition [1, 9]: 90%
- LD50 (in vivo [3]; ip, I.P.): 140 mg/kg
- LD50 (in vivo [3]; po, OS): 160 mg/kg
- % Edema Inhibition (carragenin-induced edema; I.P., 5 mg/kg, 3 h): 65,2%
- % Edema Inhibition (carragenin-induced edema; I.P., 5 mg/kg, 6 h): 60,5%
- % Edema Inhibition (carragenin-induced edema; I.P., 5 mg/kg, 24 h): 10,5%
- % Edema Inhibition (carragenin-induced edema; I.P., 10 mg/kg, 3 h): 70,6%
- % Edema Inhibition (carragenin-induced edema; I.P., 10 mg/kg, 6 h): 71,3%
- % Edema Inhibition (carragenin-induced edema; I.P., 10 mg/kg, 24 h): 15,0%
- % Edema Inhibition (carragenin-induced edema; I.P., 2,5 mg/kg, 3 h): 52,0%
- % Edema Inhibition (carragenin-induced edema; I.P., 2,5 mg/kg, 6 h): 50,0%
- % Edema Inhibition (carragenin-induced edema; I.P., 2,5 mg/kg, 24 h): 5,1%
- % Edema Inhibition (carragenin-induced edema; OS, 5 mg/kg, 3 h): 66,0%
- % Edema Inhibition (carragenin-induced edema; OS, 5 mg/kg, 6 h): 60,0%
- % Edema Inhibition (carragenin-induced edema; OS, 5 mg/kg, 24 h): 12,0%
- % Edema Inhibition (carragenin-induced edema; OS, 10 mg/kg, 3 h): 73,0%
- % Edema Inhibition (carragenin-induced edema; OS, 10 mg/kg, 6 h): 70,3%
- % Edema Inhibition (carragenin-induced edema; OS, 10 mg/kg, 24 h): 20,0%
- % Edema Inhibition (carragenin-induced edema; OS, 2,5 mg/kg, 3 h): 56,4%
- % Edema Inhibition (carragenin-induced edema; OS, 2,5 mg/kg, 6 h): 53,0%
- % Edema Inhibition (carragenin-induced edema; OS, 2,5 mg/kg, 24 h): 10,0%
- LD50 (in vivo [4]; ip, I.P.): 100 mg/kg
- LD50 (in vivo [4]; po, OS): 150 mg/kg

From US4618612A (Medosan Industrie Biochimiche Riunite S.p.A., priority 1983, dated 1986)
